Test results taken from PMC3983056 (PLoS Pathogens, 2014).
Values joined by “and” are separate entries in the source; they are usually repeats but may differ in a detail not shown here. Equal entries are not always repeated. Where two headings read alike, the source gives them in different places.

Key:
[1] = Compound-associated cytotoxicity in latently infected cells (Cell Titer Glo); assay type: cell-based, human; conditions: human, latently infected (NL4.3-Luc) primary CD4+ T cells, continuous 48 hours, 50% cell viability reduction, three donors, mean ± SD
Experimental: (§1) Total peripheral blood mononuclear cells (PBMCs) were obtained from healthy HIV-negative donors by leukapheresis (AllCells, Inc, Emeryville, CA). Naive CD4+ T cells were purified by negative selection using EasySep magnetic beads (StemCells, Inc, Vancouver, Canada) and cultured in RPMI with 10% fetal bovine serum (FBS), penicillin/streptomycin, 1% nonessential amino acids (Life Technologies, Carlsbad, CA), 1% sodium pyruvate (Life Technologies) and 495 nM beta-mercaptoethanol (Sigma Aldrich, St. Louis, MO) in a 37°C, 5% CO2 incubator. Purified naive CD4+ T cells were activated by incubation with anti-CD3/CD28 magnetic Dynabeads (1 bead: 2 cells ratio, Life Technologies), 1 µg/ml anti-IL-4 (R&D Systems, Minneapolis, MN), 2 µg/ml anti-IL-12p70 antibodies (R&D Systems), and 10 ng/ml TGF-β (R&D Systems) for 3 days, [59]. Following the removal of anti-CD3/CD28 beads and antibodies, cells were maintained in 30 U/ml IL-2 (Life Technologies) for 2 days. Cells were then infected with NL4.3-Luc in the presence of 50 µg/ml DEAE for 3 hours. Cells were maintained in the continued presence of 30 U/ml IL-2 throughout the infection and subsequent rest period with culture medium with fresh IL-2 replaced every 2–3 days. Seven days post-infection, 20 µl of latently infected cells were dispensed into 384 well plates using a MicroFlo dispenser (Biotek Insturments, VT) at 10,000 cells/well containing 100 nl of compound solutions delivered by the Echo acoustic-based liquid dispenser (Labcyte, Sunnyvale, CA). After a 48-hour incubation, 16 µl/well BriteGlo (Promega, Madison, WI) was added and luminescence measured using the Envision plate reader (Perkin Elmer, Waltham, MA). Compound-associated cytotoxicity was determined in latently infected cells in parallel with the virus activation assay. Cells were incubated with compounds for 48 hours at 37°C, and cell viability was determined using Cell Titer Glo reagent (Promega).

[2] = system: latently infected primary CD4 T cells; assay: as above; assay type: cell-based, human; conditions: continuous 48 hours, 50% cell viability reduction, three donors, mean ± SD
Experimental: as §1

human HDAC-5 = target: T1, human HDAC-5 (Homo sapiens, UniProt Q9UQL6); assay: HDAC inhibition assay; assay type: biochemical
T1 construct: purchased Reaction Biology Corporation (Malvern, PA)
T1 sequence (Q9UQL6 whole entry): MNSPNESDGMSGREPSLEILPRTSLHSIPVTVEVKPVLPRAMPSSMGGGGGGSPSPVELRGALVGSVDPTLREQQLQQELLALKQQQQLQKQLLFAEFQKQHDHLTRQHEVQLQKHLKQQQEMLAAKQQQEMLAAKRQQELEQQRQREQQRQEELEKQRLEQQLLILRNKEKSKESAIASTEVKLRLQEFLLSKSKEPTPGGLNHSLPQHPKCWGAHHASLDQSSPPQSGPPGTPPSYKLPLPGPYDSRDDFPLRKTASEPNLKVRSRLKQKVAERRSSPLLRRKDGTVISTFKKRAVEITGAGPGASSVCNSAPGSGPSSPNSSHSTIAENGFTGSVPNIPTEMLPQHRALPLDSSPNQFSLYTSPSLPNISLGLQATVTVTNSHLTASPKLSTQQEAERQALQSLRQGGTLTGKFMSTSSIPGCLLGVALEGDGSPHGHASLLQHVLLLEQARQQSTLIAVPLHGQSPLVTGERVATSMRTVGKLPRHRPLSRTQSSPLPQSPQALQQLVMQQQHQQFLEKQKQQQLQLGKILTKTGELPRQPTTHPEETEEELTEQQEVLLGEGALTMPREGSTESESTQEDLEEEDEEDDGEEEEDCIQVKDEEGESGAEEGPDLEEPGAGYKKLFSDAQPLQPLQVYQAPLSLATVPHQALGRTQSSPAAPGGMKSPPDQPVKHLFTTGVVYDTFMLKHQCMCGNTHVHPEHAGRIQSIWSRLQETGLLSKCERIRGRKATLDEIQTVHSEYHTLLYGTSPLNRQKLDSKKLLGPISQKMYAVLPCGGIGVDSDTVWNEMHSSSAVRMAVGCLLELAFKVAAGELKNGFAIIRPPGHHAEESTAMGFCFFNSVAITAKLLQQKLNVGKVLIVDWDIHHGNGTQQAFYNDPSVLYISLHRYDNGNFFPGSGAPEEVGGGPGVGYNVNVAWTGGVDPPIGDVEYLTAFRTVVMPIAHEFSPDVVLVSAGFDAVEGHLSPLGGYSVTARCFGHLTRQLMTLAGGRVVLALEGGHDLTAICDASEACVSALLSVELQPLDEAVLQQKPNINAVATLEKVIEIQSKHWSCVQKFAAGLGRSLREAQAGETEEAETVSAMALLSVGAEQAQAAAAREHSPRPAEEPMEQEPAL
Experimental: (§2) Determination of HDACi potency against individual HDAC enzymes was performed at Reaction Biology Corporation (Malvern, PA). In brief, human HDAC-1 to -11 enzymes were incubated with serial dilutions of HDACi and fluorogenic peptide substrates (50 µM) in a 96-well format assay. […] Fluorogenic peptide Boc-Lys(trifluoroacetyl)-AMC was used as a substrate for HDAC enzymes 4, 5, 7, and 9.

human HDAC-9 = target: T2, human HDAC-9 (Homo sapiens, UniProt Q9UKV0); assay: HDAC inhibition assay; assay type: biochemical
T2 construct: purchased Reaction Biology Corporation (Malvern, PA)
T2 sequence (Q9UKV0 whole entry): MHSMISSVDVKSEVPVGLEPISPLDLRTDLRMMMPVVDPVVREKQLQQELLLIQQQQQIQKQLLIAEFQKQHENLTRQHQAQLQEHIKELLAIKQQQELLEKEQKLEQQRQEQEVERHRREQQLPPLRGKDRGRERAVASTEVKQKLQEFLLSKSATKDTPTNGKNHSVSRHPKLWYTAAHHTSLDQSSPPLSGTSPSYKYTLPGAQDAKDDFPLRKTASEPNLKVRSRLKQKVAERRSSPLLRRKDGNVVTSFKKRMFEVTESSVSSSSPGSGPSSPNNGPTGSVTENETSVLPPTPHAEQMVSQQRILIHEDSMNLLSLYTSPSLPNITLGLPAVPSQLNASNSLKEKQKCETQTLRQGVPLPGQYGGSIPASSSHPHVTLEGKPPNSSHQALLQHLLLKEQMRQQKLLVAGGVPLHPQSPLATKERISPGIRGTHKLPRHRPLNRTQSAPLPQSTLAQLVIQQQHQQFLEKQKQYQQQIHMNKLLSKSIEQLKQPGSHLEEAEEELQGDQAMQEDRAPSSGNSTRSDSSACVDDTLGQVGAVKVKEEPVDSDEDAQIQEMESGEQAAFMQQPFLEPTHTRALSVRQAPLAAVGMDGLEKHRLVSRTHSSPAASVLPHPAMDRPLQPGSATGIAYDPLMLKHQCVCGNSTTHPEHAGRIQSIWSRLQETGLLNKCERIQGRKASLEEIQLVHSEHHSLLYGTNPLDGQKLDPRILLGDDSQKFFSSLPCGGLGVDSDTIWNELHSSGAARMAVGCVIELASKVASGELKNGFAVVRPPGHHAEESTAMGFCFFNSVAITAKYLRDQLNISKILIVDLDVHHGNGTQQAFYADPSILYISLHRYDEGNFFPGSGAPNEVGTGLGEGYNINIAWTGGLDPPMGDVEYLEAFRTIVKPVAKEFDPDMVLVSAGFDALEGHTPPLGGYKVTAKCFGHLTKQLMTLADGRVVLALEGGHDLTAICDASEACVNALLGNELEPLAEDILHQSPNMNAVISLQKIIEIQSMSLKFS
Experimental: as §2

human HDAC-11 = target: T3, human HDAC-11 (Homo sapiens, UniProt Q96DB2); assay: HDAC inhibition assay; assay type: biochemical
T3 construct: purchased Reaction Biology Corporation (Malvern, PA)
T3 sequence (Q96DB2 whole entry): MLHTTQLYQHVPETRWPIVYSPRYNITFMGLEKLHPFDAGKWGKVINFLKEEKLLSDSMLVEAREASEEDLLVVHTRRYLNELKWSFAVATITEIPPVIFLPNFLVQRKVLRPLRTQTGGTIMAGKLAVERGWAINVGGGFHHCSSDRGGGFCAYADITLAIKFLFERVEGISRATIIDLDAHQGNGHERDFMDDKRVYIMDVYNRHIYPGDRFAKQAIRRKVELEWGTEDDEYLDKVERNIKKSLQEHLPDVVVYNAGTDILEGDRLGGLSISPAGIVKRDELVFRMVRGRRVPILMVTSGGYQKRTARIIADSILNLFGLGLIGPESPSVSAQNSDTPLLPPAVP
Experimental: as §2

[3] = system: latent HIV in resting CD4 T cells from HIV-infected patients on suppressive cART; assay type: cell-based; conditions: for HIV RNA avg: 40 nM RMD, one value per donor; for HIV RNA [copies/mil cells] avg: Figure 5
Experimental: To examine the kinetics of HIV induction, we analyzed cell-associated viral RNA levels at 6, 12, 24, and 48 hours after treatment initiation.
Lysates were filtered through a Qiashredder (Qiagen).

[4] = system: latent HIV in resting CD4 T cells from HIV-infected patients on suppressive cART; assay: Ex vivo release of extracellular HIV RNA into culture supernatants, resting CD4 T cells; assay type: cell-based
Experimental: (§3) HIV-infected patients participating in the study were selected based on sustained plasma viral load suppression (<50 copies/ml for >12 months), CD4 counts (>350 cells/µL), and absence of co-infection with hepatitis B or C virus (Supplementary Table S1). Clinical laboratory results were reconfirmed 2 weeks before leukapheresis or blood draw. Leukapheresis was conducted for 3–4 hours, and samples were processed within 2 hours after collection. The leukapheresis product was diluted 1∶1 with PBS and layered over Ficoll for isolation of PBMCs. […] Resting CD4 T cells were isolated by first enriching total CD4 T cells (StemCell Technologies) and subsequently depleting HLA-DR-, CD25-, and CD69-positive cells via negative selection (Miltenyi Biotec, Auburn, CA).
(§4) To assess HIV activation by HDACi, up to 5 million CD4 T cells were plated in 24-well plates in 2.5 ml of media, supplemented with antiretrovirals (ARVs) (100 nM elvitegravir and 100–300 nM efavirenz) for the entire duration of culture incubation. HDACi were added at specified concentrations on day 0 and cells or culture supernatants were harvested for the analysis of HIV RNA at the indicated time points (6–48 hours or 6–7 days, respectively). For HDACi pulse treatment, cultures were washed twice using ARV-containing media at 4 or 24 hours after addition of HDACi and incubated with ARVs until harvest. To measure HIV RNA levels, 1 ml of culture supernatant was analyzed by a robotic COBAS AmpliPrep/TaqMan system (Roche Diagnostics, Indianapolis, IN), which extracts total nucleic acid and quantifies HIV RNA in copies per milliliter using the HIV-1 Test, v2.0 kit (Roche Diagnostics). For the measurement of cell-associated HIV RNA levels, cells were washed with PBS, counted, and lysed (Qiagen RLT buffer, 400 µl for every 2 million cells; Qiagen, Venlo, Netherlands). Lysates were filtered through a Qiashredder (Qiagen). Total RNA was prepared from the lysates (400 µl) using a robotic system (QIAsymphony, Qiagen) that incorporates a DNase I digestion step to eliminate cellular DNA. The resulting total RNA was eluted with 200 µl of buffer, diluted to 1 ml with nuclease-free water, and analyzed by COBAS using the HIV-1 Test v2.0 kit. Preparations of both cell-associated RNA and supernatant total nucleic acids were tested for potential contamination with HIV DNA and/or host DNA by performing the PCR amplification in the presence and absence of reverse transcriptase and by a detection of GAPDH-encoding host DNA sequence.
(§5) HIV RNA-induction experiments were conducted using 5 to 6 replicates for every experimental condition, including vehicle-treated controls. Fold induction in HIV RNA levels was calculated as a ratio of mean signals from compound-treated and vehicle (DMSO)-treated control samples from the same donor under identical conditions. […] For experiments using blood-derived resting CD4 T cells, culture supernatants from 3 replicate wells were combined and analyzed using the COBAS system.

[5] = system: CD4+ T cells, CD8+ T cells and CD19+ B cells in PBMCs from HIV-infected subjects; assay: Cell activation analysis by flow cytometry, PBMC cultures; assay type: cell-based, human; conditions: 4-hour pulse of 15 or 40 nM RMD, any cell subset
Experimental: HIV latency reversing agents that would be suitable for the therapeutic use in vivo should not induce non-specific immune activation.
For cell activation analysis, either complete PBMC cultures or resting CD4+ T cells isolated from HIV-infected cART-suppressed patients were incubated with the tested agents under specified conditions and were stained with relevant antibodies. All antibodies were purchased from BD Biosciences and included Alexa Fluor 700-labeled antibody to CD4, APC-H7-labeled antibody to CD8, PE-Cy7 -labeled antibody to CD19, PE-labeled antibody to CD69, APC-labeled antibody to CD25, and V450-labeled antibody to HLA-DR. Live cells were gated by forward and side scatter and exclusion of the dead cells by Live/Dead Fixable Aqua Stain (Invitrogen). Marker staining was assessed by flow cytometry analysis on a LSR Fortessa with data processing using FlowJo software.

[6] = Human serum binding by equilibrium dialysis, HPLC/mass spectrometry; assay type: in vitro ADME; conditions: read-out: Human serum binding (free fraction)
Source text: (DOCX) Click here for additional data file.

[7] = system: latent HIV in memory CD4 T cells from HIV-infected patients on suppressive cART; conditions: for HIV RNA avg: 6 days, one value per donor; for extracellular HIV RNA in culture supernatants: memory CD4 T cells
Source text: We used HIV RNA in cell culture supernatants as a surrogate marker for virion release from treated cells. We assumed that extracellular virions would accumulate over the course of several days; therefore, the duration of culture was extended to 6 days to maximize assay sensitivity.
as §3, §4, §5

Structure (SMILES): C/C=C1\NC(=O)[C@H]2CSSCC/C=C/[C@H](CC(=O)N[C@H](C(C)C)C(=O)N2)OC(=O)[C@H](C(C)C)NC1=O [RMD, romidepsin]
- CC50 at 48 h [1]: 0.1 µM
- CC50 [2]: 0.107 ± 0.126 µM
- IC50 (human HDAC-5): 1.16 µM
- IC50 (human HDAC-9): 8.91 µM
- IC50 (human HDAC-11): 0.000407 µM
- HIV RNA avg ([3]; Figure 2B, 6hr): 9642 copies/mil cells and 324 copies/mil cells and 14747 copies/mil cells and 6687 copies/mil cells and 2352 copies/mil cells
- HIV RNA avg ([3]; Figure 2B, 12hr): 6663 copies/mil cells and 352 copies/mil cells and 13013 copies/mil cells and 9057 copies/mil cells and 2763 copies/mil cells
- HIV RNA avg ([3]; Figure 2B, 24hr): 8902 copies/mil cells and 542 copies/mil cells and 17191 copies/mil cells and 14960 copies/mil cells and 4744 copies/mil cells
- HIV RNA avg ([3]; Figure 2B, 48hr): 3882 copies/mil cells and 831 copies/mil cells and 21497 copies/mil cells and 14409 copies/mil cells and 7107 copies/mil cells
- HIV RNA avg ([3]; Figure 4, 6 hours): 6481 copies/mil cells and 2385 copies/mil cells
- HIV RNA avg ([3]; Figure 4, 24 hours): 15888 copies/mil cells and 7188 copies/mil cells
- HIV RNA avg ([3]; Figure 4, 48 hours): 8834 copies/mil cells and 9481 copies/mil cells
- HIV RNA [copies/mil cells] avg ([3]; 3.5 nM RMD, 6 hours, donor 6): 4270 copies/mil cells
- HIV RNA [copies/mil cells] avg ([3]; 3.5 nM RMD, 6 hours, donor 7): 3321 copies/mil cells
- HIV RNA [copies/mil cells] avg ([3]; 3.5 nM RMD, 6 hours, donor 8): 816 copies/mil cells
- HIV RNA [copies/mil cells] avg ([3]; 3.5 nM RMD, 12 hours, donor 6): 3943 copies/mil cells
- HIV RNA [copies/mil cells] avg ([3]; 3.5 nM RMD, 12 hours, donor 7): 2314 copies/mil cells
- HIV RNA [copies/mil cells] avg ([3]; 3.5 nM RMD, 12 hours, donor 8): 526 copies/mil cells
- HIV RNA [copies/mil cells] avg ([3]; 3.5 nM RMD, 24 hours, donor 6): 4673 copies/mil cells
- HIV RNA [copies/mil cells] avg ([3]; 3.5 nM RMD, 24 hours, donor 7): 2633 copies/mil cells
- HIV RNA [copies/mil cells] avg ([3]; 3.5 nM RMD, 24 hours, donor 8): 586 copies/mil cells
- HIV RNA [copies/mil cells] avg ([3]; 3.5 nM RMD, 48 hours, donor 6): 3640 copies/mil cells
- HIV RNA [copies/mil cells] avg ([3]; 3.5 nM RMD, 48 hours, donor 7): 4009 copies/mil cells
- HIV RNA [copies/mil cells] avg ([3]; 3.5 nM RMD, 48 hours, donor 8): 769 copies/mil cells
- HIV RNA [copies/mil cells] avg ([3]; 15 nM RMD, 6 hours, donor 6): 9276 copies/mil cells
- HIV RNA [copies/mil cells] avg ([3]; 15 nM RMD, 6 hours, donor 7): 5400 copies/mil cells
- HIV RNA [copies/mil cells] avg ([3]; 15 nM RMD, 6 hours, donor 8): 2254 copies/mil cells
- HIV RNA [copies/mil cells] avg ([3]; 15 nM RMD, 12 hours, donor 6): 15172 copies/mil cells
- HIV RNA [copies/mil cells] avg ([3]; 15 nM RMD, 12 hours, donor 7): 4260 copies/mil cells
- HIV RNA [copies/mil cells] avg ([3]; 15 nM RMD, 12 hours, donor 8): 1826 copies/mil cells
- HIV RNA [copies/mil cells] avg ([3]; 15 nM RMD, 24 hours, donor 6): 24438 copies/mil cells
- HIV RNA [copies/mil cells] avg ([3]; 15 nM RMD, 24 hours, donor 7): 9787 copies/mil cells
- HIV RNA [copies/mil cells] avg ([3]; 15 nM RMD, 24 hours, donor 8): 4270 copies/mil cells
- HIV RNA [copies/mil cells] avg ([3]; 15 nM RMD, 48 hours, donor 6): 19207 copies/mil cells
- HIV RNA [copies/mil cells] avg ([3]; 15 nM RMD, 48 hours, donor 7): 13754 copies/mil cells
- HIV RNA [copies/mil cells] avg ([3]; 15 nM RMD, 48 hours, donor 8): 3470 copies/mil cells
- HIV RNA [copies/mil cells] avg ([3]; 45 nM RMD, 6 hours, donor 6): 14747 copies/mil cells
- HIV RNA [copies/mil cells] avg ([3]; 45 nM RMD, 6 hours, donor 7): 6687 copies/mil cells
- HIV RNA [copies/mil cells] avg ([3]; 45 nM RMD, 6 hours, donor 8): 2352 copies/mil cells
- HIV RNA [copies/mil cells] avg ([3]; 45 nM RMD, 12 hours, donor 6): 13013 copies/mil cells
- HIV RNA [copies/mil cells] avg ([3]; 45 nM RMD, 12 hours, donor 7): 9057 copies/mil cells
- HIV RNA [copies/mil cells] avg ([3]; 45 nM RMD, 12 hours, donor 8): 2763 copies/mil cells
- HIV RNA [copies/mil cells] avg ([3]; 45 nM RMD, 24 hours, donor 6): 17191 copies/mil cells
- HIV RNA [copies/mil cells] avg ([3]; 45 nM RMD, 24 hours, donor 7): 14960 copies/mil cells
- HIV RNA [copies/mil cells] avg ([3]; 45 nM RMD, 24 hours, donor 8): 4744 copies/mil cells
- HIV RNA [copies/mil cells] avg ([3]; 45 nM RMD, 48 hours, donor 6): 21497 copies/mil cells
- HIV RNA [copies/mil cells] avg ([3]; 45 nM RMD, 48 hours, donor 7): 14409 copies/mil cells
- HIV RNA [copies/mil cells] avg ([3]; 45 nM RMD, 48 hours, donor 8): 7107 copies/mil cells
- induction of HIV transcription ([3]; resting CD4 T cells, 3.5 nM RMD for 4 hours): minimal induction
- increase in intracellular HIV RNA levels versus vehicle ([3]; resting CD4 T cells, 40 nM RMD for 4 hours, peak between 24 and 48 hours): 6 fold
- persistence of intracellular HIV RNA induction ([3]; resting CD4 T cells, pulse RMD 4 hours, VOR 24 hours, PNB 24 hours, 6 to 48 hours): persisted throughout the 48-hour incubation period
- HIV RNA ([4]; Figure 3C, 2.5 nM RMD, 7 days, one value per donor): 1205 copies/mL and 20 copies/mL and 2949 copies/mL and 560 copies/mL and 341 copies/mL and 86 copies/mL and 137 copies/mL
- donors with induced HIV RNA release ([4]; resting CD4 T cells, 2.5 nM RMD continuous 6 days): 6 of 8
- HIV RNA in culture supernatants, longitudinal samples ([4]; resting CD4 T cells, 7 days continuous RMD, high-responding patient, three longitudinal samples): robust and reproducible dose-dependent HIV RNA increase
- longitudinal samples with concentration-dependent effect on viral expression ([4]; resting CD4 T cells, 7 days continuous RMD, low-responding patient): 2 of 3
- expression of CD25 or HLA-DR [5]: did not lead to any changes
- fraction unbound [6]: 0.08
- HIV RNA avg ([7]; Figure 3A, 5 nM RMD): 1476 copies/mil cells and 10908 copies/mil cells and 138 copies/mil cells and 222 copies/mil cells and 322 copies/mil cells and 41.9 copies/mil cells and 73 copies/mil cells and 313.5 copies/mil cells
- HIV RNA avg ([7]; Figure 3A, 20 nM RMD): 68 copies/mil cells and 712 copies/mil cells and 1346 copies/mil cells and 3086 copies/mil cells and 1361 copies/mil cells and 157 copies/mil cells and 732 copies/mil cells and 4776 copies/mil cells
- HIV RNA avg ([7]; Figure 3B, 5 nM RMD): 1032 copies/mil cells and 1674 copies/mil cells and 1740 copies/mil cells and 1435 copies/mil cells and 1299 copies/mil cells and 1832 copies/mil cells and 6659 copies/mil cells and 1420 copies/mil cells and 8934 copies/mil cells and 205 copies/mil cells and 148 copies/mil cells and 1219 copies/mil cells
- High-responding patient; HIV RNA [copies/mL] ([7]; Figure 7, 0.093nM RMD, donor 29, experiments 1-3): 34 copies/mL and 36 copies/mL and 64 copies/mL
- Low-responding patient; HIV RNA [copies/mL] ([7]; Figure 7, 0.093nM RMD, donor 33, experiments 1-3): 20 copies/mL and 28 copies/mL
- extracellular HIV RNA in culture supernatants ([7]; 5 nM RMD continuous 6 days): detection of extracellular HIV RNA in memory CD4 T-cell cultures from the majority of tested donors
- extracellular HIV RNA in culture supernatants ([7]; 5 and 20 nM RMD for 4 hours, day 6): increased extracellular HIV RNA
